Data as given in patent US9211270B2, “Method for improving the efficacy of curcuminoids and their analogs” (ASAC Compañía de Biotecnología e Investigación, S.A., priority 2007, dated 2015).

Assays:
psoriasis = settings: 12 week studies; cited from earlier work
[1] = system: A431 cells (human epidermal carcinoma); assay: Inhibition of tumor growth in mice, intraperitoneal Curcumin with visible light; type: in vivo, athymic nude mice (NMRI); settings: day 12, Curcumin 50 mg/kg per day i.p. + visible light 5500 lx 20 minutes
Description: 5*10^6 A431 cells (human epidermal carcinoma) were injected subcutaneously into the left and right flanks of athymic nude mice (NMRI) (5-6 weeks old, 20-24 g). The mice were fed in pathogen-free conditions. The animals were fed ad libitum with sterilized food. The animals were sterilized with ketamine/xylazine.
The irradiation device was 10 Phillips TLK 40W/03 lamps (60 cm length*4 cm diameter), at a distance of 45 cm. The emission range of the lamps was between 400-550 nm with a maximum at 420 nm.
Tumor size was measured initially and after 10-12 days; afterwards tumor volumes and weights were determined twice a week. At the end of the experiment (29 days), the animals were anesthetized and sacrificed.

Compound	patients who reached a score of PASI-75 (psoriasis)	reduction of average tumor volume in comparison to control mice [1] [%]
Efalizumab	22-35%	
COc1cc(/C=C/C(=O)CC(=O)/C=C/c2ccc(O)c(OC)c2)ccc1O [Curcumin, curcumin (diferuloylmethane)]		70
